{"source": "patent US12678449B2", "about": "“Compositions including cannabis and avocado/soybean unsaponifiables and methods of use” (Nutramax Laboratories, Inc., priority 2019, dated 2026)", "origin": "cited, not measured here", "key": {"[1]": {"details": "beagle dogs, oral, single dose"}, "[2]": {"details": "human"}}, "note": "Like-named read-outs stand apart in the source and are kept apart here."}
{"smiles": "C=C(C)[C@@H]1CCC(C)=C[C@H]1c1c(O)cc(CCCCC)cc1O", "note": "[CBD, 2-[(1R,6R)-3-methyl-6-prop-1-en-2-ylcyclohex-2-en-1-yl]-5-pentylbenzene-1,3-diol]", "values": [{"measurement": "median maximal concentration of CBD in serum", "setting": "[1]; 2 mg/kg CBD in olive oil", "value": 102.3, "unit": "ng/mL"}, {"measurement": "median maximal concentration of CBD in serum", "setting": "[1]; 8 mg/kg CBD in olive oil", "value": 590.8, "unit": "ng/mL"}, {"measurement": "CMAX", "setting": "[2]; 10 mg dose of CBD (Guy et al.)", "value": 2.47, "unit": "ng/mL"}, {"measurement": "mean plasma concentration of CBD", "setting": "[2]; 1 h after oral intake of 5.4 mg dose (Nadulski et al.)", "value": 0.95, "unit": "ng/mL"}, {"measurement": "mean plasma level of CBD", "setting": "[2]; oral administration of 40 mg of CBD (Agurell et al.)", "value": 5.5, "unit": "ng/mL"}]}
